The record followed here is BindingDB's records for doi:10.1021/jm00403a011 (Bristol Myers Squibb, 1988).

For the test, the target named is D(2) dopamine receptor (Rattus norvegicus, UniProt P61169). Put plainly: ChEBML_61437. How it is done: In vitro antagonistic activity against Dopamine receptor D2 was evaluated for the inhibition of [3H]spiperone binding
Sequence of D(2) dopamine receptor (P61169 whole entry): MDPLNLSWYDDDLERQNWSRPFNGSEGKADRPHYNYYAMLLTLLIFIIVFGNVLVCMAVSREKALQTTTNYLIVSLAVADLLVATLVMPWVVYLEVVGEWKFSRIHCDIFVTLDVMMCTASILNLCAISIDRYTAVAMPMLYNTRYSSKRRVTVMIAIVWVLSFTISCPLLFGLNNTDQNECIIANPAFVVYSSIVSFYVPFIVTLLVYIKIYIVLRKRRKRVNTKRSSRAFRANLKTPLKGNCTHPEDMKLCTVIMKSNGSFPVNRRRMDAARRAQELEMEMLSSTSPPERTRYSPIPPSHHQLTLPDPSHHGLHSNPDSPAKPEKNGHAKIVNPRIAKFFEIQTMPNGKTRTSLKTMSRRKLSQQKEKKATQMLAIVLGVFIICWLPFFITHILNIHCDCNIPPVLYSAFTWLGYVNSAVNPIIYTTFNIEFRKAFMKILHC

As for `CCN(CC)CCNC(=O)c1cc(Cl)c(N)cc1OC(C)C(C)N=O` (configuration not stated) [4-Amino-5-chloro-N-(2-diethylamino-ethyl)-2-(2-hydroxyimino-1-methyl-propoxy)-benzamide], the IC50 is more than 1 µM.
Next, `CCN(CC)CCNC(=O)c1cc(Cl)c(N)cc1OCC(C)N=O` (configuration not stated) [4-Amino-5-chloro-N-(2-diethylamino-ethyl)-2-(2-hydroxyimino-propoxy)-benzamide]: more than 1 µM.

One may read the IC50 as the midpoint of a concentration-inhibition curve. Higher therefore signals a need for much substance.
